Activity and IC50 data for twelve molecules are collected here from ChEMBL document CHEMBL5584347, “Development of Nitric Oxide Releasing Oxoisoaporphines with Antidepressant Activities by Simultaneously Regulating MAO-A and SERT” (J Med Chem, 2024).

Molecules are shown by their SMILES. Active and inactive are the calls of the source. The rule behind the calls is not given here.

In series [1] the test system is Mus musculus. Put plainly: Upregulation of 5-HT level in mouse at 10 mg/kg in presence of oxoisoaporphines. Type of series: functional, organism-based.
For series [2], the system named is Mus musculus. Description: Upregulation of 5-HT level in mouse at 10 mg/kg in presence of isosorbide mononitrate. Type of series: functional, organism-based.
The nature of series [3]: Cytotoxicity against human SH-SY5Y cells incubated for 24 hrs by MTT assay. Format: toxicity, cell-based.
Series [4] in a line: Cytotoxicity against rat PC-12 cells incubated for 24 hrs by MTT assay. Format: toxicity, cell-based.
Series [5] is described as follows: Cytotoxicity against human L02 cells incubated for 24 hrs by MTT assay. Type of series: toxicity, cell-based.
In the next series the test system is PC-12. Put plainly: Neuroprotective activity against corticosterone-induced cell injury in rat PC-12 cells assessed as increase in cell viability at 0.1 to 1 uM incubated for 24 hrs by CCK8 assay. Format: functional, cell-based. The note with it: dose 0.1-1 µM.
Series [6] has as its system Danio rerio. Put plainly: Antidepressant activity in reserpine-induced depressive zebrafish model assessed as increase in speed of movement at 1 uM preadministered with reserpine for 40 mins followed by compound administration and measured after 7 days by open field test. Type of series: functional, organism-based. As to conditions: time 7.0 day.
For series [7], the system named is Mus musculus. Description: Antidepressant activity in chronic unpredictable mild stress induced depressive C57 mouse model assessed as increase in total distance traveled at 10 mg/kg administered continuously for 2 weeks post 5 weeks of chronic unpredictable mild stress by open field test. Format: functional, organism-based.
The subject of series [8] is Danio rerio. Put plainly: Antidepressant activity in reserpine-induced depressive zebrafish model assessed as increase in total distance traveled at 1 uM preadministered with reserpine for 40 mins followed by compound administration and measured after 7 days by novel tank test. As to conditions: time 7.0 day. Format: functional, organism-based.
The subject of series [9] is Mus musculus. Put plainly: Antidepressant activity in chronic unpredictable mild stress induced depressive C57 mouse model assessed as increase in movement at 10 mg/kg administered continuously for 2 weeks post 5 weeks of chronic unpredictable mild stress by open field test. Type of series: functional, organism-based.
Series [10] deals with Danio rerio. Put plainly: Antidepressant activity in reserpine-induced depressive zebrafish model assessed as increase in total distance traveled at 1 uM preadministered with reserpine for 40 mins followed by compound administration and measured after 7 days by open field test. Format: functional, organism-based. The note with it: time 7.0 day.
For series [11], the system named is Danio rerio. Put plainly: Antidepressant activity in reserpine-induced depressive zebrafish model assessed as increase in speed of movement at 1 uM preadministered with reserpine for 40 mins followed by compound administration and measured after 7 days by novel tank test. Type of series: functional, organism-based. As to conditions: time 7.0 day.
Series [12] deals with Mus musculus. Description: Antidepressant activity in reserpine induced depressive mouse model assessed as 5-HT level in brain at 10 mg/kg preadministered with reserpine for 3 days followed by compound addition from day 4 to 10 by LC-MS analysis (reference value: 186.46 ng/ml). Format: functional. The note with it: time 7 day.
The subject of series [13] is Danio rerio. Description: Antidepressant activity in reserpine-induced depressive zebrafish model assessed as increase in time spend in upper part at 1 uM preadministered with reserpine for 40 mins followed by compound administration and measured after 7 days by novel tank test. Type of series: functional, organism-based. The note with it: time 7.0 day.
Series [14] relates to Danio rerio. Description: Antidepressant activity in reserpine-induced depressive zebrafish model assessed as reduction in immobility time at 1 uM preadministered with reserpine for 40 mins followed by compound administration and measured after 7 days by open field test. Format: functional, organism-based. As to conditions: time 7.0 day.

Turning to `O=[N+]([O-])O[C@@H]1CO[C@H]2[C@@H]1OC[C@@H]2O`, the outcome with Mus musculus [1] was Active.

Consider `O=C1c2ccccc2-c2nccc3cccc1c23`, for which, in the series with Mus musculus [2], the result was Active.

As to `O=C1c2ccccc2-c2nccc3cc(OCCCCO[N+](=O)[O-])cc1c23`, the values for the half-inhibitory concentration (IC50) at 24 h in series [3], in series [4] and in [5] were over 100 µM, over 10 µM and over 100 µM, respectively. Besides, the outcome in the series on PC-12 was Active.

On to `CNCCC(Oc1ccc(C(F)(F)F)cc1)c1ccccc1` (configuration not stated) [FLUOXETINE], for which the outcome in the series with Danio rerio [6], in the series with Mus musculus [7], in the series with Danio rerio [8], in the series with Mus musculus [9], in the series on Danio rerio [10] and in the series on Danio rerio [11] was Active. Also, the result in the series with Danio rerio [13] and with Danio rerio [14] was Active. Moreover, in the series on Mus musculus [12], the Activity is 223.45 ng/mL.

Consider `O=C1c2ccccc2-c2nccc3cc(OCCCCCCO[N+](=O)[O-])cc1c23`, for which the concentration for half-maximal inhibition (IC50) at 24 h in series [3] is over 100 µM; in series [4], over 10 µM; in [5], over 100 µM. For the same molecule, the result in the series on PC-12 was Active.

As to `O=C1c2ccccc2-c2nccc3cc(OCCOc4no[n+]([O-])c4S(=O)(=O)c4ccccc4)cc1c23`, the figures for the half-maximal inhibitory concentration (IC50) at 24 h in [3], in series [4] and in series [5] were over 100 µM, over 10 µM and over 100 µM, respectively. In the series with PC-12, the result was inactive.

For the molecule `O=C1c2ccccc2-c2nccc3cc(OCCCOc4no[n+]([O-])c4S(=O)(=O)c4ccccc4)cc1c23`, the concentration for half-maximal inhibition (IC50) at 24 h was over 100 µM in series [3], over 10 µM in series [4] and over 100 µM in series [5]. Also, in the series with PC-12, the result was inactive.

`O=C1c2ccccc2-c2nccc3cc(OCCCCCO[N+](=O)[O-])cc1c23`: the values for the 50% inhibitory concentration (IC50) at 24 h in [3], in series [4] and in series [5] were over 100 µM, over 10 µM and over 100 µM, respectively. The outcome in the series with PC-12 was Active.

On to `O=C1c2ccccc2-c2nccc3cc(OCCCCCCOc4no[n+]([O-])c4S(=O)(=O)c4ccccc4)cc1c23`, for which the IC50 at 24 h in series [3] was over 100 µM; in series [4] it was over 10 µM; in series [5], over 100 µM. For the same molecule, the result with PC-12 was inactive.

Take `O=C1c2ccccc2-c2nccc3cc(OCCCCOc4no[n+]([O-])c4S(=O)(=O)c4ccccc4)cc1c23`: the IC50 at 24 h in [3] was over 100 µM; in series [4], over 10 µM; in series [5], over 100 µM. Besides, the result with PC-12 was inactive.

Turning to `O=C1c2ccccc2-c2nccc3cc(OCCCCCOc4no[n+]([O-])c4S(=O)(=O)c4ccccc4)cc1c23`, the IC50 at 24 h is over 100 µM in series [3], over 10 µM in series [4] and over 100 µM in [5]. Further, the result with PC-12 was inactive.

Regarding `O=C1c2ccccc2-c2nccc3cc(OCCO[N+](=O)[O-])cc1c23`, the IC50 at 24 h was over 100 µM in series [3], over 10 µM in [4] and over 100 µM in series [5]. Moreover, the outcome with PC-12 was Active.
